Laboratory results published in US20260284127A1, “COMPOSITIONS OF […] CORDYCEPS AND METHODS OF DELIVERY FOR THE TREATMENT OF ACUTE AND LONG COVID” (priority 2023, published 2026).

Assays:
CaCo2 cells = format: in vitro ADME; settings: 200 μg/ml cordycepin apical, pure solution
Procedure: Methods: Transepithelial wells with a 1 μm pore size and 0.3 cm^2 surface area were preincubated with DMEM-F12 media with 10% FBS and 10 μg/ml penicillin/streptomycin at 37° C. in 5% CO2 for one hour. CaCo2 cells in the same media were seeded at a density of 50,000 cells. The cells were maintained under these conditions throughout the experiment. Media was changed every 2 to 3 days, and TEER values were monitored from day 10 onward. At day 18, cells with TEER values exceeding 200 ohm/cm^2 were incubated in PAB buffer for 20 minutes: 1 ml in basolateral and 0.5 ml in apical side. Samples of 200 μg/ml cordycepin, and 200 μg/ml cordycepin in a standardized cordyceps extract were prepared in PAB buffer, which was exchanged for the apical buffer. Fifty microlitre samples of both apical and basolateral compartments were acquired initially and at 1 hour intervals. The samples were immediately added to 450 μl of methanol and quantified on an Agilent 4910 LC-mass spectrometer. Cordycepin was measured by direct injection in SMS mode and integrated values were compared against standard curves prepared in the same manner as test samples.

[1] = cordycepin after one oral dose of HAD-B1 formula; cited from earlier work
[2] = cited from earlier work
CaCo2 = settings: human, Caco-2; cited from earlier work
[3] = given as a pure compound; cited from earlier work

Compound: Nc1ncnc2c1ncn2[C@@H]1O[C@H](CO)C[C@H]1O [cordycepin, 3′-deoxyadenosine]
- cordycepin measured on the basal side (CaCo2 cells): no detectable
- half-life [1]: 8.62 h
- time to maximal concentration [1]: 1.5 h
- experimental solubility in water [2]: 1 mg/mL
- CaCo2 permeability (CaCo2): 1.1*10^−7 cm/s
- oral bioavailability [3]: extremely low
